Measured values: US7045544B2, “Substituted 2,5-diamidoindoles as ECE inhibitors for the treatment of cardiovascular diseases” (Bayer HealthCare AG, priority 2001, dated 2006)
Counter-ions that a name gives are not always drawn.

Target: T1, endothelin-converting enzyme (ECE) (Homo sapiens, UniProt P42892)
T1 construct: The ECE activity for identifying the substances described herein originates from the endothelial cell line EA.hy926; endogenous in cells; host or cells: EA.hy926 endothelial cells (intact, confluent)
T1 sequence (P42892 1-770): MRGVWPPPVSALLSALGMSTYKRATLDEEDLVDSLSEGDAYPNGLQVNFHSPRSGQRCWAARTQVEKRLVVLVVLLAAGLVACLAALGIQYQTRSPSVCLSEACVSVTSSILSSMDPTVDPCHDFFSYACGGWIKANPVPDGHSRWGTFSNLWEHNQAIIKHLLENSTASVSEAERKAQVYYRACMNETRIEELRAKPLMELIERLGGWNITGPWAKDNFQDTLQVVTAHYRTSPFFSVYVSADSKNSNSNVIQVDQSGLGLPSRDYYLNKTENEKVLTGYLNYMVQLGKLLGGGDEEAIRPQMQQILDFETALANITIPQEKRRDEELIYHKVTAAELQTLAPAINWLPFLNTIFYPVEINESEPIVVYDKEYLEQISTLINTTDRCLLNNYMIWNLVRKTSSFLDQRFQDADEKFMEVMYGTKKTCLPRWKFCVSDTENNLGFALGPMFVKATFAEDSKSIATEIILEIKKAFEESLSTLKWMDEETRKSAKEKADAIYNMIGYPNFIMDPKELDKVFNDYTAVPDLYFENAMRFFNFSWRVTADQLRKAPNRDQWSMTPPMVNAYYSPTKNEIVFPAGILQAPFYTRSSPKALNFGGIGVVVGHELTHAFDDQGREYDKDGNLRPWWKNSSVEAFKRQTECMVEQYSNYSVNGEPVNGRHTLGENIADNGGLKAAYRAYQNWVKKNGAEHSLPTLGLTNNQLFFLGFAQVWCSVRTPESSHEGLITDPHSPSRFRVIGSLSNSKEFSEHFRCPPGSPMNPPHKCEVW
Test: cell-based
Settings: ECE activity of endothelial cell line EA.hy926; 1–100 nM bET; 100 μM thiophane added; ET-1 formed measured by EIA
Procedure: Functional in Vitro Assay
The ECE activity for identifying the substances described herein originates from the endothelial cell line EA.hy926. The ECE-inhibitory action of the compounds in this invention is tested as described below:
For 12–48 h, EA.hy296 cells are cultivated in a 384-well cell culture dish in 80 μl of cell culture medium (DMEM supplemented with 10% FCS, 2 mM glutamine, 10 mM HEPES, 1 mM sodium pyruvate and 1×HAT (Gibco 21060-017)) in a humid atmosphere (100% atmospheric humidity) enriched with 7% v/v of CO2 at 37° C. After confluence has been reached, and immediately prior to the actual beginning of measurement, the supernatant of the cell culture is pipetted off and replaced by 40 or 80 μl of the same medium to which 1–100 nM bET has been added. After 30–120 minutes under otherwise identical cell culture conditions, the supernatant is pipetted off. Cellular components are removed by centrifugation in a customary bench-top centrifuge (10 000 rpm; 2 minutes). The resulting clear supernatant is either used directly as described below or shock-frozen in dry ice and then stored at −20° C. Directly removed supernatant or thawed, stored supernatant are measured in an enzyme immunoassay (EIA).
To determine the inhibitory activity of ECE inhibitors, EA.hy296 cells are incubated with the test substance in a concentration between 0.001–5 μM under the conditions described above. To minimize possible interference by neutral endopeptidase (NEP24.11), 100 μM of thiophane are added during the bET incubation of the EA.hy926 cells.
The proportion of the ET-1 formed by ECE cleavage is measured as follows: depending on the amount of converted bET, the samples are, prior to use, diluted 2–100-fold with EIA. An appropriate dilution of the cell supernatant is incubated in 100 μl portions for 14–18 hours in the sample tubes of the EIA kit Biomedica B1-20052.

## CC(C)(C)CC(=O)Nc1ccc2c(c1)cc(C(=O)Nc1ccc(N)cc1)n2Cc1ccccc1F [Example 57, N-(4-Aminophenyl)-5-[(3,3-dimethylbutanoyl)amino]-1-(2-fluorobenzyl)-1H-indole-2-carboxamide hydrochloride]
  IC50: 1500 nM

## CC(C)(C)CC(=O)Nc1ccc2c(c1)cc(C(=O)Nc1ccc(NS(C)(=O)=O)cc1)n2Cc1ccccc1F [Example 58]
  IC50: 1600 nM

## CC(=O)Nc1ccc(NC(=O)c2cc3cc(NC(=O)CC(C)(C)C)ccc3n2Cc2ccccc2F)cc1 [Example 60]
  IC50: 700 nM
